These results are taken from PubChem BioAssay (NCI).

SMILES strings stand for the structures.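 Protocol summary: plate cells (96-well), add compound at 5 concentrations, incubate 48 h, interpolate endpoints linearly. Definition used: TGI = concentration required for complete inhibition of growth.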 A value given as a limit tells only on which side of the number the result lay.

In one experiment the test system is EKVX NSCLC. Kind of experiment: DTP human tumour cell line panel, 48 h.
What is called TGI is the concentration giving total growth inhibition. A high value points to lower sensitivity of the cells. As for `CCN(CC)CCn1c(=O)c2cccnc2n2c3c(=O)n(C)c(=O)n(C)c3nc12`, the TGI was greater than 100 µM.
Take `CC(=N/N=C/c1ccccn1)/C(C)=N/N=C(C)/C(C)=N/N=C(C)/C(C)=N/N=C(C)/C(C)=N\N=C\c1ccccn1`: the TGI was greater than 100 µM.
For the molecule `CC1=NN(c2cccc(Cl)c2)C2(C1=C/C=C/c1ccccc1)C(Cl)C(=O)N2c1nc2ccccc2s1` (stereo not given), the total growth inhibition concentration (TGI) is greater than 100 µM.
As to `C=CCSc1nnc2cc(CN3CCCC3)c(-c3ccc(Cl)cc3)nn12`, the TGI came out at 43.8 µM.
`CN(C)c1ccc(C(=N/N=C2\C(=O)Nc3ccccc32)c2ccc(N(C)C)cc2)cc1` returned a TGI greater than 54.4 µM.
With `CSC(=S)N(C)C`, the concentration for total growth inhibition (TGI) is greater than 100 µM.
In turn, `CCN(CC)CCN(C(=Nc1ccccc1)N1CCOCC1)c1ccccc1` gave a TGI greater than 100 µM.
On the same count and under the same terms, in the case of `CC1(C)CCCC2OC2CCC(C)(C)C1=O` (stereo not given) it was greater than 100 µM.
The molecule `COP(=O)(/C=C/c1cc(C(=O)OCc2ccccc2)n(S(=O)(=O)c2ccccc2)c1)OC` came in with a TGI greater than 100 µM.
In the case of `NC1=NCC(CN2CCOCC2)O1` (stereo not given), the total growth inhibition concentration (TGI) was greater than 100 µM.
Molecule `COc1cc(/C=C/C(=O)CC(=O)/C=C/c2ccc(OC(=O)CCCCC3CCSS3)c(OC)c2)ccc1OC(=O)CCCCC1CCSS1` (stereo not given) had a TGI greater than 100 µM.
Molecule `CCCCC(C(=O)NCCNC(=O)CCC(=O)N(C)O)C(=O)NCCNC(=O)CCC(=O)N(C)O` had a TGI greater than 100 µM.

The subject of the next experiment is HCT-116 colon. In words: DTP human tumour cell line panel, 48 h.
Turning to `CCN(CC)CCn1c(=O)c2cccnc2n2c3c(=O)n(C)c(=O)n(C)c3nc12`, the TGI was greater than 100 µM.
`CC(=N/N=C/c1ccccn1)/C(C)=N/N=C(C)/C(C)=N/N=C(C)/C(C)=N/N=C(C)/C(C)=N\N=C\c1ccccn1`: the TGI is greater than 100 µM.
For the molecule `CC1=NN(c2cccc(Cl)c2)C2(C1=C/C=C/c1ccccc1)C(Cl)C(=O)N2c1nc2ccccc2s1` (stereo not given), the total growth inhibition concentration (TGI) was greater than 86.1 µM.
The same measure, in the same setting: next, `C=CCSc1nnc2cc(CN3CCCC3)c(-c3ccc(Cl)cc3)nn12`: 28.5 µM; `CN(C)c1ccc(C(=N/N=C2\C(=O)Nc3ccccc32)c2ccc(N(C)C)cc2)cc1`: 12.3 µM; `CSC(=S)N(C)C`: greater than 100 µM.
Same read-out and setting: next, `CCN(CC)CCN(C(=Nc1ccccc1)N1CCOCC1)c1ccccc1`: 89.8 µM; `CC1(C)CCCC2OC2CCC(C)(C)C1=O` (stereo not given): greater than 100 µM; `COP(=O)(/C=C/c1cc(C(=O)OCc2ccccc2)n(S(=O)(=O)c2ccccc2)c1)OC`: greater than 100 µM.
For `NC1=NCC(CN2CCOCC2)O1` (stereo not given), the TGI was greater than 100 µM.
`COc1cc(/C=C/C(=O)CC(=O)/C=C/c2ccc(OC(=O)CCCCC3CCSS3)c(OC)c2)ccc1OC(=O)CCCCC1CCSS1` (stereo not given): the TGI was greater than 100 µM.
On the same count and under the same terms, in the case of `CCCCC(C(=O)NCCNC(=O)CCC(=O)N(C)O)C(=O)NCCNC(=O)CCC(=O)N(C)O` it was greater than 100 µM.

The next experiment has as its system K-562 leukemia. Kind of experiment: DTP human tumour cell line panel, 48 h.
With `CCN(CC)CCn1c(=O)c2cccnc2n2c3c(=O)n(C)c(=O)n(C)c3nc12`, the TGI is greater than 100 µM.
Molecule `CC(=N/N=C/c1ccccn1)/C(C)=N/N=C(C)/C(C)=N/N=C(C)/C(C)=N/N=C(C)/C(C)=N\N=C\c1ccccn1` returned a TGI greater than 100 µM.
In the case of `CC1=NN(c2cccc(Cl)c2)C2(C1=C/C=C/c1ccccc1)C(Cl)C(=O)N2c1nc2ccccc2s1` (stereo not given), the TGI was 31 µM.
As to `C=CCSc1nnc2cc(CN3CCCC3)c(-c3ccc(Cl)cc3)nn12`, the TGI is greater than 100 µM.
The same measure, in the same setting: in the case of `CN(C)c1ccc(C(=N/N=C2\C(=O)Nc3ccccc32)c2ccc(N(C)C)cc2)cc1` it was 39.6 µM; in that of `CSC(=S)N(C)C`, greater than 100 µM; in that of `CCN(CC)CCN(C(=Nc1ccccc1)N1CCOCC1)c1ccccc1`, greater than 100 µM.
Molecule `CC1(C)CCCC2OC2CCC(C)(C)C1=O` (stereo not given) returned a TGI greater than 100 µM.
`COP(=O)(/C=C/c1cc(C(=O)OCc2ccccc2)n(S(=O)(=O)c2ccccc2)c1)OC` yielded a TGI greater than 100 µM.
On the same count and under the same terms, next, `NC1=NCC(CN2CCOCC2)O1` (stereo not given): greater than 100 µM; `COc1cc(/C=C/C(=O)CC(=O)/C=C/c2ccc(OC(=O)CCCCC3CCSS3)c(OC)c2)ccc1OC(=O)CCCCC1CCSS1` (stereo not given): greater than 100 µM.
As to `CCCCC(C(=O)NCCNC(=O)CCC(=O)N(C)O)C(=O)NCCNC(=O)CCC(=O)N(C)O`, the TGI is greater than 100 µM.

The next experiment has as its system MALME-3M melanoma. In words: DTP human tumour cell line panel, 48 h.
In turn, `CCN(CC)CCn1c(=O)c2cccnc2n2c3c(=O)n(C)c(=O)n(C)c3nc12` showed a TGI greater than 100 µM.
On the same count and under the same terms, in the case of `CC(=N/N=C/c1ccccn1)/C(C)=N/N=C(C)/C(C)=N/N=C(C)/C(C)=N/N=C(C)/C(C)=N\N=C\c1ccccn1` it was greater than 100 µM; in that of `CC1=NN(c2cccc(Cl)c2)C2(C1=C/C=C/c1ccccc1)C(Cl)C(=O)N2c1nc2ccccc2s1` (stereo not given), greater than 100 µM.
With `C=CCSc1nnc2cc(CN3CCCC3)c(-c3ccc(Cl)cc3)nn12`, the TGI stood at 43.2 µM.
Still for that read-out and setting: next, `CN(C)c1ccc(C(=N/N=C2\C(=O)Nc3ccccc32)c2ccc(N(C)C)cc2)cc1`: greater than 52.1 µM; `CSC(=S)N(C)C`: greater than 100 µM; `CCN(CC)CCN(C(=Nc1ccccc1)N1CCOCC1)c1ccccc1`: greater than 100 µM.
In the case of `CC1(C)CCCC2OC2CCC(C)(C)C1=O` (stereo not given), the TGI is greater than 100 µM.
As for `COP(=O)(/C=C/c1cc(C(=O)OCc2ccccc2)n(S(=O)(=O)c2ccccc2)c1)OC`, the TGI was greater than 100 µM.
As for `NC1=NCC(CN2CCOCC2)O1` (stereo not given), the TGI was greater than 100 µM.
The molecule `COc1cc(/C=C/C(=O)CC(=O)/C=C/c2ccc(OC(=O)CCCCC3CCSS3)c(OC)c2)ccc1OC(=O)CCCCC1CCSS1` (stereo not given) came in with a TGI greater than 100 µM.
On to `CCCCC(C(=O)NCCNC(=O)CCC(=O)N(C)O)C(=O)NCCNC(=O)CCC(=O)N(C)O`, for which the TGI is greater than 100 µM.

For a further experiment, the system named is MCF7 breast. Kind of experiment: DTP human tumour cell line panel, 48 h.
`CCN(CC)CCn1c(=O)c2cccnc2n2c3c(=O)n(C)c(=O)n(C)c3nc12` came in with a total growth inhibition concentration (TGI) greater than 100 µM.
Molecule `CC(=N/N=C/c1ccccn1)/C(C)=N/N=C(C)/C(C)=N/N=C(C)/C(C)=N/N=C(C)/C(C)=N\N=C\c1ccccn1` displayed a TGI greater than 100 µM.
The molecule `CC1=NN(c2cccc(Cl)c2)C2(C1=C/C=C/c1ccccc1)C(Cl)C(=O)N2c1nc2ccccc2s1` (stereo not given) returned a TGI greater than 100 µM.
`C=CCSc1nnc2cc(CN3CCCC3)c(-c3ccc(Cl)cc3)nn12` returned a TGI of 33.7 µM.
As to `CN(C)c1ccc(C(=N/N=C2\C(=O)Nc3ccccc32)c2ccc(N(C)C)cc2)cc1`, the TGI turned out to be 2.72 µM.
For the molecule `CSC(=S)N(C)C`, the TGI is greater than 100 µM.
`CCN(CC)CCN(C(=Nc1ccccc1)N1CCOCC1)c1ccccc1` had a TGI greater than 100 µM.
Molecule `CC1(C)CCCC2OC2CCC(C)(C)C1=O` (stereo not given) yielded a TGI greater than 100 µM.
The molecule `COP(=O)(/C=C/c1cc(C(=O)OCc2ccccc2)n(S(=O)(=O)c2ccccc2)c1)OC` returned a TGI greater than 100 µM.
The molecule `NC1=NCC(CN2CCOCC2)O1` (stereo not given) returned a TGI greater than 100 µM.
For the molecule `COc1cc(/C=C/C(=O)CC(=O)/C=C/c2ccc(OC(=O)CCCCC3CCSS3)c(OC)c2)ccc1OC(=O)CCCCC1CCSS1` (stereo not given), the TGI is greater than 100 µM.
For the molecule `CCCCC(C(=O)NCCNC(=O)CCC(=O)N(C)O)C(=O)NCCNC(=O)CCC(=O)N(C)O`, the TGI is greater than 100 µM.
